Experimental data: ChEMBL document CHEMBL5653635, “Induction of apoptosis and cell cycle arrest by CP-358,774, an inhibitor of epidermal growth factor receptor tyrosine kinase” (Cancer Res, 1997)
Activity calls are given as the source filed them. The calls are words filed in the database; no cut-off is given here.

Key:
[1] = target: Insulin-like growth factor 1 receptor (Homo sapiens) (UniProt P08069); assay: Inhibition of IGF-IR (711 to 1377 residues) (unknown origin) expressed in baculovirus-infected Sf9 cells at 20 uM incubated for 8 mins by colorimetry based assay relative to control
Sequence of Insulin-like growth factor 1 receptor (Homo sapiens) (P08069 31-736 limits assumed): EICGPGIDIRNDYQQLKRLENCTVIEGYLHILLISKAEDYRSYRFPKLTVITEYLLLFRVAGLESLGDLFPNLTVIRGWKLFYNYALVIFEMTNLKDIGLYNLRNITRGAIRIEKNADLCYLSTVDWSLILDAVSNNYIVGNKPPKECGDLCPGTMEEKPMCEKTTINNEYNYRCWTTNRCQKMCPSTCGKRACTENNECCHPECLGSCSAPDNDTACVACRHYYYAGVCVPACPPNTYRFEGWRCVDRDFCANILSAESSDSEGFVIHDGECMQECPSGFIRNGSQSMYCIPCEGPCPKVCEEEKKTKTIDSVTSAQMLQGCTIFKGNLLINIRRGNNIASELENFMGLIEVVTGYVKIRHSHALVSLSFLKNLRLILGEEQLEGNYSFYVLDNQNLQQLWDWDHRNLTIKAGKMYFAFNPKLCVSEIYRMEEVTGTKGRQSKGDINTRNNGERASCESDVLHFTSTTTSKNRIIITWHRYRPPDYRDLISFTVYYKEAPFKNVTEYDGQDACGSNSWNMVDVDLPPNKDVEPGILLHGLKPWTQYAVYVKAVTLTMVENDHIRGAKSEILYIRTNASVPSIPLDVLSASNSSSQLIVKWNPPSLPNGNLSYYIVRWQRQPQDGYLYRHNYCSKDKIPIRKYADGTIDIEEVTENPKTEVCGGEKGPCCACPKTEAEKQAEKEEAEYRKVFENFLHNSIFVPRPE
Sequence of Insulin-like growth factor 1 receptor (Homo sapiens) (P08069 741-1367 limits assumed): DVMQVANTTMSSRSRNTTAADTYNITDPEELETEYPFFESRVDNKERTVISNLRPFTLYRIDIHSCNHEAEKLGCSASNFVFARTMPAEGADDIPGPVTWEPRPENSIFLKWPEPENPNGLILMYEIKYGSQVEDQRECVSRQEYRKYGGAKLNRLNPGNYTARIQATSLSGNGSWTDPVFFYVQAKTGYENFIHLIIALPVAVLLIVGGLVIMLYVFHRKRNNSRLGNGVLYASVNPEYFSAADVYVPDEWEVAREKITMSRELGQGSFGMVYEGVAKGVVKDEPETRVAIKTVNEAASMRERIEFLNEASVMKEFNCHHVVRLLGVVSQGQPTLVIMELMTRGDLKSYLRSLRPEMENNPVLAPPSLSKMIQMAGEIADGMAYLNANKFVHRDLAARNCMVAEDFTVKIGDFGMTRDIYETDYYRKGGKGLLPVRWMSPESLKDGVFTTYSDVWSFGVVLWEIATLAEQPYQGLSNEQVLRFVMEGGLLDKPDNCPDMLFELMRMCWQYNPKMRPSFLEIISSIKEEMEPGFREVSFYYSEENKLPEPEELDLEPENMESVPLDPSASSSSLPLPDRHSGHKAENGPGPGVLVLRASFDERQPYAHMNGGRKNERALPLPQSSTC

HN5 [2] = assay: Induction of apoptosis in human HN5 cells assessed as decrease in cell population at 1 uM measured after 24 hrs by PI staining based flow cytometry analysis; assay type: functional
DiFi [3] = assay: Induction of cell cycle arrest in human DiFi cells assessed as accumulation of cells at G1 phase at 1 uM incubated for 24 hrs by PI staining based flow cytometry analysis (reference value: 64%); assay type: functional
DiFi [4] = assay: Induction of cell cycle arrest in human DiFi cells assessed as accumulation of cells at S phase at 1 uM incubated for 24 hrs in presence of IGF-1 by PI staining based flow cytometry analysis (reference value: 8 %); assay type: functional
DiFi [5] = assay: Induction of PARP cleavage in human DiFi cells assessed as increase in Mr 85000 fragments at 1 uM incubated for 24 hrs by Western blotting analysis; assay type: functional, cell-based
DiFi [6] = assay: Induction of apoptosis in human DiFi cells assessed as protection of annexin V-FITC binding at 1 uM incubated for 24 hrs in presence of IGF-1 by annexin V-FITC and PI staining based flow cytometry analysis relative to control; assay type: functional
DiFi [7] = assay: Induction of apoptosis in human DiFi cells assessed as DNA fragmentation by measuring DNA ladders at 1 uM measured after 24 hrs by agarose gel electrophoresis analysis; assay type: functional, cell-based
DiFi [8] = assay: Induction of apoptosis in human DiFi cells assessed as DNA fragmentation at 1 uM measured after 24 hrs in presence of IGF-1 by agarose gel electrophoresis analysis; assay type: functional, cell-based
DiFi [9] = assay: Induction of apoptosis in human DiFi cells at 1 uM incubated for 24 hrs in presence of IGF-1 by PI staining based flow cytometry analysis (reference value: 2.3%); assay type: functional
DiFi [10] = assay: Induction of cell cycle arrest in human DiFi cells assessed as accumulation of cells at G2 phase at 1 uM incubated for 24 hrs in presence of IGF-1 by PI staining based flow cytometry analysis (reference value: 28%); assay type: functional
DiFi [11] = assay: Induction of apoptosis in human DiFi cells at 1 uM measured after 24 hrs by annexin V-FITC and PI staining based flow cytometry analysis (reference value: 6%); assay type: functional
[12] = target: Insulin-like growth factor 1 receptor (Homo sapiens) (UniProt P08069); assay: Inhibition of insulin induced phosphorylation of IRS-1 in serum starved human HN5 cells at 1 uM preincubated for 1 hr followed by insulin stimulation and measured after 5 mins by immunoblot analysis; assay type: cell-based; conditions: time 65.0 min
DiFi [13] = assay: Induction of cell cycle arrest in human DiFi cells assessed as increase in cell percentage in G1 phase at 0.1 uM measured after 24 hrs by BrdUrd incorporation based flow cytometry analysis (reference value: 82 +- 0.9%); assay type: functional
DiFi [14] = assay: Induction of PARP cleavage in human DiFi cells assessed as decrease in Mr 116000 fragments at 1 uM incubated for 24 hrs in presence of IGF-1 by Western blotting analysis; assay type: functional, cell-based
HN5 [15] = assay: Induction of cell cycle arrest in human HN5 cells assessed as increase in accumulation of cells in G1 phase at 1 uM measured after 48 hrs by PI staining based flow cytometry analysis (reference value: 24%); assay type: functional
DiFi [16] = assay: Induction of PARP cleavage in human DiFi cells assessed as increase in Mr 85000 fragments at 8 ug/ml […] incubated for 24 hrs by Western blotting analysis; assay type: functional, cell-based; conditions: dose 8.0 µg/ml
DiFi [17] = assay: Induction of cell cycle arrest in human DiFi cells assessed as accumulation of cells at S phase at 1 uM incubated for 24 hrs by PI staining based flow cytometry analysis (reference value: 8 %); assay type: functional
[18] = target: Insulin receptor (Homo sapiens) (UniProt P06213); assay: Inhibition of insulin induced phosphorylation of insulin receptor in serum starved human HN5 cells at 1 uM preincubated for 1 hr followed by insulin stimulation and measured after 5 mins by immunoblot analysis; assay type: cell-based; conditions: time 65.0 min
Sequence of Insulin receptor (Homo sapiens) (P06213 28-758 limits assumed): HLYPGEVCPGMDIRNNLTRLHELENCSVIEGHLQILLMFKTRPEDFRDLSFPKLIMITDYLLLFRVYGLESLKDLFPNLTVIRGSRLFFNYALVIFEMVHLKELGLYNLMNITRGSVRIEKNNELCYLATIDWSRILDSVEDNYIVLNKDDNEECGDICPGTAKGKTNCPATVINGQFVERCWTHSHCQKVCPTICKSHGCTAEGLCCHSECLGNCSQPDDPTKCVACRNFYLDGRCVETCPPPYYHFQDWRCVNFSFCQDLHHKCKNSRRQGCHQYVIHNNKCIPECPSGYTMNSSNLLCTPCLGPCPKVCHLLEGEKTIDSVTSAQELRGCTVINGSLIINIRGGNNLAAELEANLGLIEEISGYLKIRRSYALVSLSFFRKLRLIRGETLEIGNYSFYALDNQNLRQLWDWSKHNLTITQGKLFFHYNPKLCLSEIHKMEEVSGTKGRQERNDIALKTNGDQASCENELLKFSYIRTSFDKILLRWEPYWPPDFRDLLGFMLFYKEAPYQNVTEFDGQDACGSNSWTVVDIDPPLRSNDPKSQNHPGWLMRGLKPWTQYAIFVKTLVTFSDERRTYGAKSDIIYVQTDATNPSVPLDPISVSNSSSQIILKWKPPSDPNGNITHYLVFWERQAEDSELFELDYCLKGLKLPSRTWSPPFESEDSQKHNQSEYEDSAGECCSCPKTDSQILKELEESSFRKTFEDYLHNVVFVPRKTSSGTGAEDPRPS
Sequence of Insulin receptor (Homo sapiens) (P06213 763-1382 limits assumed): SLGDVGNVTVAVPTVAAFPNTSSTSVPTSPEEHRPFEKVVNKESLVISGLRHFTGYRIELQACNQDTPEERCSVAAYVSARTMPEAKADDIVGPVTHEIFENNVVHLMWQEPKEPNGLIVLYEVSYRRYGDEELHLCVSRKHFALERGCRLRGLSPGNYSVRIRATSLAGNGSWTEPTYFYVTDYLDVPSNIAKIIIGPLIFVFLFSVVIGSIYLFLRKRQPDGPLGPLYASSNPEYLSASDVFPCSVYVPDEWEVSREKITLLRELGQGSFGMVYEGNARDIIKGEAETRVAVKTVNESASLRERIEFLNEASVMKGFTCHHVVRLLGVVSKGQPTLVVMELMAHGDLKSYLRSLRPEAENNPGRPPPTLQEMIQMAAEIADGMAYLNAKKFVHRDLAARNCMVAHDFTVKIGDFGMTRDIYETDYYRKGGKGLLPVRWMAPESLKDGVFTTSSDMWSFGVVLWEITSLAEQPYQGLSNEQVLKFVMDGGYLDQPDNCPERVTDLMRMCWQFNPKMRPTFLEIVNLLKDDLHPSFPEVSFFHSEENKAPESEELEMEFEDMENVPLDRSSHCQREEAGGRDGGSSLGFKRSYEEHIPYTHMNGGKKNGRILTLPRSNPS

DiFi [19] = assay: Induction of apoptosis in human DiFi cells assessed as accumulation of cells at sub-G1 phase at 1 uM measured after 24 hrs in presence of IGF-1 by PI staining based flow cytometry analysis; assay type: functional, cell-based
DiFi [20] = assay: Induction of apoptosis in human DiFi cells at 1 uM incubated for 24 hrs by PI staining based flow cytometry analysis (reference value: 2.3%); assay type: functional
DiFi [21] = assay: Induction of cell cycle arrest in human DiFi cells assessed as decrease in cell percentage in S phase at 1 uM measured after 24 hrs by BrdUrd incorporation based flow cytometry analysis (reference value: 14 +- 0.5%); assay type: functional; set-up: scale not given: the % may be the effect or the level left
[22] = target: Insulin receptor (Homo sapiens) (UniProt P06213); assay: Inhibition of human recombinant insulin receptor expressed in baculovirus at 10 uM incubated for 8 mins by colorimetry based assay
DiFi [23] = assay: Induction of apoptosis in human DiFi cells at 1 uM measured after 24 hrs in presence of IGF-1 by annexin V-FITC and PI staining based flow cytometry analysis (reference value: 6%); assay type: functional
[24] = Antiproliferative activity against raf-transformed mouse NIH3T3 cells assessed as inhibition of cell viability; assay type: toxicity, cell-based
DiFi [25] = assay: Induction of cell cycle arrest in human DiFi cells assessed as decrease in cell percentage in S phase at 0.1 uM measured after 24 hrs by BrdUrd incorporation based flow cytometry analysis (reference value: 14 +- 0.5%); assay type: functional; set-up: scale not given: the % may be the effect or the level left
DiFi [26] = assay: Induction of PARP cleavage in human DiFi cells assessed as increase in Mr 85000 fragments at 1 uM incubated for 24 hrs in presence of IGF-1 by Western blotting analysis; assay type: functional, cell-based
DiFi [27] = assay: Induction of cell cycle arrest in human DiFi cells assessed as accumulation of cells at G2 phase at 1 uM incubated for 24 hrs by PI staining based flow cytometry analysis (reference value: 28%); assay type: functional
DiFi [28] = assay: Induction of apoptosis in human DiFi cells assessed as accumulation of cells at sub-G1 phase at 1 uM measured after 24 hrs by PI staining based flow cytometry analysis; assay type: functional, cell-based
DiFi [29] = assay: Induction of apoptosis in human DiFi cells assessed as decrease in number of normal cells at 1 uM incubated for 24 hrs by annexin V-FITC and PI staining based flow cytometry analysis; assay type: functional, cell-based
DiFi [30] = assay: Induction of cell cycle arrest in human DiFi cells assessed as increase in cell percentage in G1 phase at 1 uM measured after 24 hrs by BrdUrd incorporation based flow cytometry analysis (reference value: 82 +- 0.9%); assay type: functional
HN5 [31] = assay: Antiproliferative activity against human HN5 cells assessed as inhibition of cell viability at 50 nM; assay type: functional, cell-based
DiFi [32] = assay: Induction of PARP cleavage in human DiFi cells assessed as decrease in Mr 116000 fragments at 1 uM incubated for 24 hrs by Western blotting analysis; assay type: functional, cell-based
DiFi [33] = assay: Antiproliferative activity against human DiFi cells assessed as percentage of viable cells at 1 uM measured after 24 hrs by coulter counter method (reference value: 98+/-0.8%); assay type: functional
DiFi [34] = assay: Induction of apoptosis in human DiFi cells assessed as increase in number of necrotic cells at 1 uM incubated for 24 hrs by annexin V-FITC and PI staining based flow cytometry analysis; assay type: functional, cell-based
HN5 [35] = assay: Induction of cell cycle arrest in human HN5 cells assessed as reduction in accumulation of cells in S phase at 1 uM measured after 48 hrs by PI staining based flow cytometry analysis (reference value: 55%); assay type: functional; set-up: scale not given: the % may be the effect or the level left
HN5 [36] = assay: Antiproliferative activity against human HN5 cells assessed as inhibition of cell viability at 250 nM relative to control; assay type: functional
DiFi [37] = assay: Induction of cell cycle arrest in human DiFi cells assessed as accumulation of cells at G1 phase at 1 uM incubated for 24 hrs in presence of IGF-1 by PI staining based flow cytometry analysis (reference value: 64%); assay type: functional
[38] = target: Insulin-like growth factor 1 receptor (Homo sapiens) (UniProt P08069); assay: Inhibition of IGF-IR (711 to 1377 residues) (unknown origin) expressed in baculovirus-infected Sf9 cells at 10 uM incubated for 8 mins by colorimetry based assay

`N#CC(C#N)=Cc1cc(O)c(O)c(O)c1` gave an inhibition [1] of 50%.
In the case of `C#Cc1cccc(Nc2ncnc3cc(OCCOC)c(OCCOC)cc23)c1` [ERLOTINIB], the Activity (HN5 [2]) is reported as “Active”, the Activity (DiFi [3]) is reported as 77% and the Activity (DiFi [4]) is reported as 2%. The Activity (DiFi [5]) was “Active”, the Activity (DiFi [6]) was 100% and the Activity (DiFi [7]) was “Active”. For the same compound, the Activity (DiFi [8]) was “inactive”, the Activity (DiFi [9]) was 7.4% and the Activity (DiFi [10]) was 21%. For the same compound, the Activity (DiFi [11]) was 21%, the inhibition [12] was “inactive” and the Activity (DiFi [13]) was 85%. The Activity (DiFi [14]) was “inactive”, the Activity (HN5 [15]) was 56% and the Activity (DiFi [16]) was “Active”. For the same compound, the Activity (DiFi [17]) was 5%, the inhibition [18] was “inactive” and the Activity (DiFi [19]) was “inactive”. For the same compound, the Activity (DiFi [20]) was 17%, the Activity (DiFi [21]) was 0.7% and the inhibition [22] was “inactive”. For the same compound, the Activity (DiFi [23]) was 6%, the IC50 [24] was 7 µM and the Activity (DiFi [25]) was 9%. For the same compound, the Activity (DiFi [26]) was “inactive”, the Activity (DiFi [27]) was 18% and the Activity (DiFi [28]) was “Active”. For the same compound, the Activity (DiFi [29]) was “Active”, the Activity (DiFi [30]) was 95% and the Activity (HN5 [31]) was “Active”. The Activity (DiFi [32]) was “Active”, the Activity (DiFi [33]) was 97% and the Activity (DiFi [34]) was “inactive”. The Activity (HN5 [35]) was 24%, the Activity (HN5 [36]) was 100% and the Activity (DiFi [37]) was 77%. For the same compound, the inhibition [38] was “inactive”.
